The text below walks through data of ChEMBL document CHEMBL3227994, “Novel application of proton nuclear magnetic resonance spectroscopy in the identification of 2'-chloronordiazepam metabolites in the dog” (J Med Chem, 1979).

The nature of series [1]: Drug excretion in Beagle dog urine assessed as conjugated form of 2'-chloro-9-hydroxy nordiazepam at 10 mg/kg, po after 4 days by two-dimensional TLC analysis. The format is ADME, organism-based, Canis lupus familiaris. On the set-up: dose 10 mg/kg, route oral. Conditions: in vivo, 96 h.
A short description of series [2]: Drug excretion in Beagle dog urine assessed as nonconjugated form of 2'-chloro-4'-hydroxy nordiazepam at 10 mg/kg, po after 4 days by two-dimensional TLC analysis. It is filed as ADME, organism-based, Canis lupus familiaris. Also noted: dose 10 mg/kg, route oral. Particulars: in vivo, 96 h.
A short description of series [3]: Drug excretion in Beagle dog urine assessed as conjugated form of lorazepam at 10 mg/kg, po after 4 days by two-dimensional TLC analysis. The format is ADME, organism-based, Canis lupus familiaris. Also noted: dose 10 mg/kg, route oral. Particulars: in vivo, 96 h.
Series [4] can be described thus: Drug excretion in Beagle dog feces assessed as conjugated form of lorazepam at 10 mg/kg, po after 4 days by two-dimensional TLC analysis. It is filed as ADME, organism-based, Canis lupus familiaris. Also noted: dose 10 mg/kg, route oral. Particulars: in vivo, 96 h.
A short description of series [5]: Drug excretion in dog urine assessed as conjugated form of lorazepam at 10 mg/kg, po. Conditions: in vivo. On the set-up: dose 10 mg/kg, route oral. It is filed as ADME, organism-based, Canis lupus familiaris.
Series [6] is described as follows: Drug excretion in Beagle dog urine at 10 mg/kg, po measured within 6 days by liquid scintillation spectrophotometric analysis. On the set-up: dose 10 mg/kg, route oral. Conditions: in vivo, 144 h. It is filed as ADME, organism-based, Canis lupus familiaris.
Series [7] in a line: Drug metabolism in Beagle dog urine assessed as formation of 2'-chloro-9-hydroxy nordiazepam at 10 mg/kg, po after 4 days by TLC analysis. It is filed as ADME, organism-based, Canis lupus familiaris. On the set-up: dose 10 mg/kg, route oral. Conditions: in vivo, 96 h.
The nature of series [8]: Drug metabolism in Beagle dog urine assessed as formation of 2'-chloro-4'-hydroxy nordiazepam at 10 mg/kg, po after 4 days by TLC analysis. The format is ADME, organism-based, Canis lupus familiaris. Also noted: dose 10 mg/kg, route oral. Conditions: in vivo, 96 h.
The nature of series [9]: Drug excretion in Beagle dog feces assessed as nonconjugated form of lorazepam at 10 mg/kg, po after 4 days by two-dimensional TLC analysis. The format is ADME, organism-based, Canis lupus familiaris. On the set-up: dose 10 mg/kg, route oral. Conditions: in vivo, 96 h.
A short description of series [10]: Drug excretion in Beagle dog feces assessed as conjugated form of compound at 10 mg/kg, po after 4 days by two-dimensional TLC analysis. It is filed as ADME, organism-based, Canis lupus familiaris. On the set-up: dose 10 mg/kg, route oral. Conditions: in vivo, 96 h.
Series [11] in a line: Drug metabolism in Beagle dog urine assessed as formation of lorazepam at 10 mg/kg, po after 4 days by TLC analysis. It is filed as ADME, organism-based, Canis lupus familiaris. Also noted: dose 10 mg/kg, route oral. Conditions: in vivo, 96 h.
The nature of series [12]: Drug excretion in Beagle dog feces assessed as nonconjugated form of 2'-chloro-4'-hydroxy nordiazepam at 10 mg/kg, po after 4 days by two-dimensional TLC analysis. The format is ADME, organism-based, Canis lupus familiaris. On the set-up: dose 10 mg/kg, route oral. Conditions: in vivo, 96 h.
Series [13] can be described thus: Drug excretion in Beagle dog urine at 10 mg/kg, po measured within 3 days by liquid scintillation spectrophotometric analysis. It is filed as ADME, organism-based, Canis lupus familiaris. Also noted: dose 10 mg/kg, route oral. Conditions: in vivo, 72 h.
Series [14] can be described thus: Drug excretion in Beagle dog urine assessed as nonconjugated form of 2'-chloro-9-hydroxy nordiazepam at 10 mg/kg, po after 4 days by two-dimensional TLC analysis. Also noted: dose 10 mg/kg, route oral. The format is ADME, organism-based, Canis lupus familiaris. Particulars: in vivo, 96 h.
The nature of series [15]: Drug excretion in Beagle dog feces at 10 mg/kg, po measured within 6 days by liquid scintillation spectrophotometric analysis. The format is ADME, organism-based, Canis lupus familiaris. On the set-up: dose 10 mg/kg, route oral. Particulars: in vivo, 144 h.
Series [16] is described as follows: Drug excretion in Beagle dog feces assessed as nonconjugated form of 2'-chloro-9-hydroxy nordiazepam at 10 mg/kg, po after 4 days by two-dimensional TLC analysis. The format is ADME, organism-based, Canis lupus familiaris. On the set-up: dose 10 mg/kg, route oral. Conditions: in vivo, 96 h.
Series [17] can be described thus: Drug excretion in Beagle dog feces assessed as conjugated form of 2'-chloro-9-hydroxy nordiazepam at 10 mg/kg, po after 4 days by two-dimensional TLC analysis. On the set-up: dose 10 mg/kg, route oral. It is filed as ADME, organism-based, Canis lupus familiaris. Particulars: in vivo, 96 h.
The nature of series [18]: Drug excretion in Beagle dog feces assessed as nonconjugated form of compound at 10 mg/kg, po after 4 days by two-dimensional TLC analysis. The format is ADME, organism-based, Canis lupus familiaris. Also noted: dose 10 mg/kg, route oral. Conditions: faeces, read-out: Drug excretion.
Series [19] is described as follows: Drug excretion in dog urine assessed as conjugated form of lorazepam at 10 mg/kg, iv. The format is ADME, organism-based, Canis lupus familiaris. On the set-up: dose 10 mg/kg, route intravenous. Conditions: in vivo.
Series [20] is described as follows: Drug excretion in Beagle dog urine assessed as nonconjugated form of compound at 10 mg/kg, po after 4 days by two-dimensional TLC analysis. Conditions: read-out: Drug excretion. On the set-up: dose 10 mg/kg, route oral. It is filed as ADME, organism-based, Canis lupus familiaris.
Series [21] can be described thus: Drug excretion in Beagle dog urine assessed as conjugated form of 2'-chloro-4'-hydroxy nordiazepam at 10 mg/kg, po after 4 days by two-dimensional TLC analysis. The format is ADME, organism-based, Canis lupus familiaris. Also noted: dose 10 mg/kg, route oral. Conditions: in vivo, 96 h.
A short description of series [22]: Drug excretion in Beagle dog feces assessed as conjugated form of 2'-chloro-4'-hydroxy nordiazepam at 10 mg/kg, po after 4 days by two-dimensional TLC analysis. The format is ADME, organism-based, Canis lupus familiaris. Also noted: dose 10 mg/kg, route oral. Conditions: in vivo, 96 h.
Series [23] in a line: Drug excretion in Beagle dog urine assessed as nonconjugated form of lorazepam at 10 mg/kg, po after 4 days by two-dimensional TLC analysis. The format is ADME, organism-based, Canis lupus familiaris. On the set-up: dose 10 mg/kg, route oral. Conditions: in vivo, 96 h.
A short description of series [24]: Retention time of the compound. It is filed as physicochemical.

In the case of `O=C1CN=C(c2ccccc2Cl)c2cc(Cl)ccc2N1` [DELORAZEPAM], the Drug excretion came to 2.5 %ID in series [1]; 1 %ID in [2]; 15.3 %ID in series [3]; 19.9 %ID in [4]; 13 %ID in [5]; 60.5 %ID in series [6]. Also, the Drug excretion in series [9] turned out to be 4.2 %ID; in series [10], 3.8 %ID; in series [12], 1.5 %ID; in series [13] it was 58 %ID; in series [14], 1.1 %ID; in [15], 28.5 %ID. The Drug excretion in [16] came out at 3.7 %ID; in series [17], 7.3 %ID; in series [19], 16 %ID; in series [21] it was 2.8 %ID; in series [22], 5.3 %ID; in series [23], 0.4 %ID. The values for the Drug metabolism in [7], in series [8] and in series [11] were 1.7 mg.equiv, 1.6 mg.equiv and 10.7 mg.equiv, respectively. For the same molecule, the values for the dose excreted at 96 h in series [18] and in series [20] were 2.7% and 1.1%, respectively.
Consider `O=C1Nc2ccc(Cl)cc2C(c2ccccc2Cl)=NC1O` (centres undefined) [LORAZEPAM], for which the Retention_time in [24] was determined as 3.8 min.
